pIC50: −log10 of the molar value. Like-named read-outs stand apart in the source and are kept apart here.
What was measured:
Assay type in all cases: biochemical
GPX1 = molecular target: T1, GPX1 (Homo sapiens, UniProt P07203); test: GR-coupled GPX1 activity assay (NADPH fluorescence, CHP substrate); details: for inhibition of GPX1: Fig. 9 pan-selenoprotein inhibitors
T1 construct: made in house; host or cells: E. coli
T1 sequence (P07203 1-203): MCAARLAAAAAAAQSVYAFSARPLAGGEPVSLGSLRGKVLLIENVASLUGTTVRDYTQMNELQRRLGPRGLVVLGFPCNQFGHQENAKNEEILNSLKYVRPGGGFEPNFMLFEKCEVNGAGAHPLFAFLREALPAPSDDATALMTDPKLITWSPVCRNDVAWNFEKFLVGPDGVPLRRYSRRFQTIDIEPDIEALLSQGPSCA
Experimental: (§1) The compound plates were prepared as described previously. Purified recombinant human GPX1, GPX2, GPX4, GR, and TXNRD1 were produced and purified as previously reported [[48], [49], [50]]. As production of GPX2 was not optimized at the onset of screening, only GPX1 and GPX4 underwent library screening, and GPX2 was used as a follow-up.
(§2) Follow-up and orthogonal assays were run in quadruplicate unless otherwise stated. Assay schemes are illustrated in Fig. 1.
To measure GPX activity, assays were performed in 1536-well format in black medium-binding solid-bottom plates (Greiner). These assay conditions were optimized for high-throughput screening from an assay first described by Paglia and Valentine. GPX activity is measured indirectly by coupling the reaction with GR whereby GPX reduces hydroperoxide by oxidizing two GSH to GSSG and the oxidized glutathione is recycled to its reduced state by GR and NADPH (Fig. 1B). The rate of consumption of NADPH is directly proportional to the activity of GPX and can be measured by the decrease in fluorescence at 340 nm/450 nm.
First, 3 μL of enzyme in TES assay buffer (50 mM Tris-HCl, 2 mM EDTA (pH 7.5), 150 mM NaCl with enzyme [10 nM GPX1, 200 nM GPX4 ] and BSA [0.01%]) was added to columns 3–48 of 1536-well plates using a BioRAPTR Flying Reagent Dispenser (Let's Go Robotics (LGR), Carlsbad, CA). A no-enzyme control (0.01% BSA in TES assay buffer) was added to columns 1–2. Compounds (25 nL, library and DMSO controls) were added to each well with a pin tool (Kalypsys), and the plates were incubated for 30 min at room temperature before 1 μL of master mix (100 nM GR, 1 mM GSH, 0.5 mM NADPH in TES buffer) was added. 1 μL of cumene hydroperoxide (CHP) ([0.5 mM] in 50% EtOH) was then added within 5 min to initiate the reaction. Fluorescence at 340/450 nm was measured using a ViewLux multimodal detector (PerkinElmer, Waltham, MA) at initial t = 0 and endpoint t = 15 min (GPX1) or t = 20 min (GPX4).
Follow-up confirmation assays were also run in 96-well format using medium binding clear 96-well SpectraPlate microplates (PerkinElmer) and NADPH absorbance at 340 nm was measured every 30 s for 30 min using an Infinite® M Nano (Tecan).
(§3) Percent activity was determined by first calculating delta RFU (decrease in fluorescence between t = 0 and t = 20/30 min in primary GPX, GR counter-screen, and TXNRD1 assays, or increase in fluorescence between t = 0 and t = 20 min in the Monobromobimane GPX endpoint assay), and normalizing enzyme activity using median delta RFU values for DMSO-treated enzyme control, and DMSO-treated no-enzyme controls.
(§4) Compound inhibitory activity in the qHTS assays was determined by plotting dose-response data for each sample and fitting with a four-parameter logistic fit to assess IC50 values, efficacy (maximal response), and AUC (area under the curve), as previously described. Hits were classified by the quality of the concentration-response curves (CRC). Curve classes −1.1 and −1.2 being the highest-confidence actives with complete CRCs and classes −2.1 and −2.2 being lower-confidence actives with incomplete CRCs.

human GPX2 = molecular target: T2, human GPX2 (Homo sapiens, UniProt P18283); test: GPX2 activity assay (follow-up isoform specificity); details: for inhibition of GPX2: Fig. 9 pan-selenoprotein inhibitors
T2 construct: made in house
T2 sequence (P18283 1-190): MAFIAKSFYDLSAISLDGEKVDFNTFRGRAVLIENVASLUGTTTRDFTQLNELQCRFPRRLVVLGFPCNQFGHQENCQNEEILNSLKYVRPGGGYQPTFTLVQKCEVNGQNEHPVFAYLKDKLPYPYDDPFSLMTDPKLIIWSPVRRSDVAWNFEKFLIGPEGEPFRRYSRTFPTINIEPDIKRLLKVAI
Experimental: as §1, §2
Previous work has shown similarities in the substrate specificities of GPX1 and GPX2, and a more unique substrate profile of GPX4 [8].
The GPX2 isoform of human selenoprotein GPXs is found in epithelial cells and has similar substrate specificity with GPX1, but not as much with GPX4 [8]. Additionally, GPX1 and GPX2 both form homotetramers and share similarities in structural homology, although GPX2 has a much slower turnover rate.

human TXNRD1 = molecular target: T3, human TXNRD1 (Homo sapiens, UniProt Q16881); test: Thioredoxin reductase 1 (TXNRD1) inhibition assay (selenite reduction); details: for inhibition of TXNRD1: Fig. 9 pan-selenoprotein inhibitors
T3 construct: made in house
T3 sequence (Q16881 1-499 isoform Q16881-5): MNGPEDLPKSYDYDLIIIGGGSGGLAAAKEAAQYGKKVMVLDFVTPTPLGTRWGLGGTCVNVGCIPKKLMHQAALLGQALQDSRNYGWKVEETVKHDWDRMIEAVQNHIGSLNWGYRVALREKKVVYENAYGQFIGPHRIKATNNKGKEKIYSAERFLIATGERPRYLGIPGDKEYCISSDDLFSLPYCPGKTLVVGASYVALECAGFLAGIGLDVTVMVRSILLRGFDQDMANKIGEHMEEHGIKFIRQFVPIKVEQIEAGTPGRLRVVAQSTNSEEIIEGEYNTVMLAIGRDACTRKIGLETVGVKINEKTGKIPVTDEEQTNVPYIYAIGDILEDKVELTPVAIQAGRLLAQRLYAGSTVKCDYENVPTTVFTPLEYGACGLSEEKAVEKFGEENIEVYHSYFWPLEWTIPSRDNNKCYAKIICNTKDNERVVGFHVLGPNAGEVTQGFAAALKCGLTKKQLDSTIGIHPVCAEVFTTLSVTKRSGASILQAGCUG
Experimental: as §1, §2
TXNRD1 activity was assessed using a modified 1536-well TXNRD1 inhibition assay, based upon TXNRD1-catalyzed selenite reduction as previously described (Fig. 1D). […] TE buffer was dispensed into column 1 and 2 as a no-enzyme control. Finally, 1 μL of sodium selenite in TE buffer was dispensed into each well for final concentrations of 90 nM hTXNRD1, 0.4 mM NADPH, and 0.4 mM sodium selenite. The plate was read in a Viewlux multimodal detector in kinetic mode and fluorescence at 340 nm/450 nm was measured every minute for 8 min.
as §3, §4

[1] = listed as 2,3-dimercaptopropanesulfonic acid

Row | inhibition of GPX1 (GPX1) | inhibition of GPX1 (GPX1; [1]) | inhibition of GPX2 (human GPX2) | inhibition of GPX2 (human GPX2; [1]) | inhibition of TXNRD1 (human TXNRD1) | inhibition of TXNRD1 (human TXNRD1; [1]) | Structure (SMILES) | pIC50 (GPX1; IC50 of resulting CRC, Table 2, read-out: IC50 GPx1) | pIC50 (GPX1; assay validation, Fig. 2E, read-out: IC50, prior art GPX1 inhibitor activities in optimized assay) | pIC50 (GPX1; compound present in the screening libraries (qHTS), read-out: IC50 GPX1, primary library screen) | pIC50 (GPX1; initial tests comparing GR-coupled and mBBr assay formats, read-out: IC50 in the GR-coupled assay) | hit status in GPX1 qHTS (GPX1; primary library screen) | pIC50 (human GPX2; IC50 of resulting CRC, Table 2) | pIC50 (human TXNRD1; IC50 of resulting CRC, Table 2, read-out: IC50 TrxR1)
1 | inhibited all tested selenoproteins | inhibited all selenoproteins | inhibited all tested selenoproteins | inhibited all selenoproteins | inhibited all tested selenoproteins | inhibited all selenoproteins | O=S(=O)(O)CC(S)CS (stereo not shown) [2,3-dimercaptopropanesulfonate] | – | – | – | – | – | – | –
2 | – | – | – | – | – | – | CC(=O)OC[C@H]1O[C@@H]([S-])[C@H](OC(C)=O)[C@@H](OC(C)=O)[C@@H]1OC(C)=O.CCP(CC)CC.[Au+] [Auranofin] | 5.34 | 5.32 | 5.65 | 5.71 | high-quality active hit for GPX1 in all three | 5.68 | 4.72

— publication PMC10220285, “Development of an assay pipeline for the discovery of novel small molecule inhibitors of human glutathione peroxidases GPX1 and GPX4” (Redox Biology, 2023)
